# Literature values in patent US5047425A, “Amine derivatives having cardiovascular activity” (Simes Societa Italiana Medicinali & Sintetici SpA, priority 1987, dated 1991).
# Conditions: literature: McKenna 1966; Whitsitt 1967; cited from earlier work
smiles,measurement,value
CC(C)NCC(O)COc1cccc2ccccc12 (centres unmarked) [Propranolol],cardiac output,depresses at the same time the cardiac output
same,coronary flow,depresses at the same time the cardiac output and the coronary flow
